The results in this text go back to patent publication US20040180916A1, “Treatment of pain with combinations of nalbuphine and other kappa-opioid receptor agonists and opioid receptor antagonists” (The Regents of the University of California, priority 2002, published 2004).

Experiment [1] deals with postoperative pain. The following applies: intravenous; for analgesic response (change in VAS pain rating): nalbuphine hydrochloride salt 2.5 mg alone.
From the text: In this clinical trial 67 patients underwent standardized surgery by the same oral surgeon for removal of third molar teeth, including at least one bony impacted mandibular third molar. Prior to surgery, patients received intravenous diazepam, nitrous oxide, and a local anesthetic (mepivacaine without vasoconstrictor to obtain a nerve block of short duration). After surgery, each patient was randomly assigned to receive an injection of nalbuphine hydrochloride salt (Abbott Laboratories, Abbott Park, Ill.) 2.5 mg either alone or combined with naloxone hydrochloride salt (0.4 mg) in an open injection, double-blinded fashion, through an intravenous line.
Baseline pain intensity was defined as the last VAS pain rating before administration of the test drug. VAS pain ratings were recorded at 20 minute intervals beginning ten minutes after administration of the test drug. The duration of the experiment was two hours and fifty minutes, measured from the time of administration of the test drug. For each patient, the magnitude of the analgesic (or anti-analgesic) response was defined as the difference between the pain rating at each time point following test drug administration and the baseline VAS pain rating.
Experiment [2] has as its system postoperative pain. The following applies: nalbuphine hydrochloride salt 2.5 mg alone; both sexes; intravenous.
Method: In this clinical trial, 65 patients underwent standardized surgery by the same oral surgeon for removal of third molar teeth, including at least one bony impacted mandibular third molar. Prior to surgery, patients received intravenous diazepam, nitrous oxide, and a local anesthetic (mepivacaine without vasoconstrictor to obtain a nerve block of short duration). After surgery, each patient was randomly assigned to receive an injection of 2.5 mg of nalbuphine hydrochloride salt (Abbott Laboratories, Abbott Park, Ill.) either alone or combined with 0.2 mg naloxone hydrochloride salt in an open injection, double-blinded fashion, through an intravenous line.
Baseline pain intensity was defined as the last VAS pain rating before administration of the test drug. VAS pain ratings were recorded at 20 minute intervals beginning ten minutes after administration of the test drug. The duration of the experiment, measured from the time of administration of the test drug, was two hours and fifty minutes. For each patient, the magnitude of the analgesic (or anti-analgesic) response was defined as the difference between the pain rating at each time point following test drug administration and the baseline VAS pain rating.

Where a name gives a salt, the structure may show the parent alone. Read-outs that look alike come from different tables or passages of the source.

For the molecule `Oc1ccc2c3c1O[C@H]1[C@@H](O)CC[C@@]4(O)[C@@H](C2)N(CC2CCC2)CC[C@]314` [nalbuphine hydrochloride salt, nalbuphine], the “analgesic response (change in VAS pain rating)” value is on record as “induced brief analgesia” in experiment [1] (FIG. 4a, women) and “failed to produce significant analgesia” in experiment [1] (FIG. 4b, men). Further, the anti-analgesia result in experiment [1] (women, nalbuphine hydrochloride salt 2.5 mg) is given as “apparently insufficient to produce anti-analgesia”. Also, the analgesic effect entry in experiment [2] is on record as “initial analgesic effect of administration of nalbuphine alone observed in both sexes”.
